Assay results reported in EP3161491B1, “[…] FOR THE DETECTION OF THE MANIPULATION OF MUSCLE GROWTH IN A DOMESTIC ANIMAL” (Stichting Kwaliteitsgarantie Vleeskalversector, priority 2014, dated 2015).

Experiments:
[1] = test system: anti-myostatin antibodies
Experimental: Calves were randomly assigned into treatment groups. Twenty one (21) Holstein-Friesian calves (12 male and 9 female) between 9 - 14 weeks of age were included in the study. […] The control group was only injected with the injection fluids, whereas the second group was treated with the myostatin propeptide fragment. The treatments were administered intramuscularly on day 0, day 35 and day 88 of the treatment. Animals were monitored during 19 weeks from the start of the treatment.
Myostatin propeptide fragment (SEQ ID NO 1) was dissolved in sterile arachis oil, and mixed with ViteSel, Freund's Adjuvant Incomplete, or Freund's Adjuvant Complete for injection. […] The control group was injected with the same injection fluid, but without the added peptide. […]
The coated microplate wells were coated with Imperacer® wash buffer "A" using washer-program "block", block against unspecific interaction with "chimera direct block" solution (240 µl/well, 1 min/RT) and with Imperacer® wash buffer "B". After this treatment, the microplate wells were ready for sample incubation. […]
The wells were subsequently washed with Imperacer® wash buffers "B" and "A". 30 µl/well of ready-to-use Imperacer® PCR-mastermix were added to each well. The wells were sealed using real-time PCR foil, and placed into the Imperacer® reader 50 cycles at 95°C with 12 sec per cycle, at 50°C for 30 sec and at 72°C for 30 sec. […]

[2] = Observation of general health of calves during the 19 weeks treatment period; format: in vivo, Holstein-Friesian calves; conditions: three intramuscular treatments, 19 weeks observation
Experimental: Calves were randomly assigned into treatment groups.
All calves were treated with the myostatin propeptide fragment three times with during the observation period. Physical data and samples were collected during the life-time of the calves, such as general health, local reactions, and body weight. Serum samples were collected. Some clinical signs were observed, but they remained within a range that was considered normal for a 19 weeks fattening period. […] The animals were healthy at the time of slaughter and all slaughter samples were collected.

[3] = test system: myostatin pathway biomarkers; conditions: change relative to non-manipulated reference animal
Experimental: Example 2 was repeated using bovine samples analysed in Example 1.
Detection Conjugate "CHI-Bovine-IgG" (conjugated antibody: anti-Bovine IgG-heavy and light chain Antibody, Sheep Polyclonal, catalogue number: A10-115; Supplier: Bethyl Laboratories, Inc., USA) was used instead of the mouse conjugate. All other Imperacer conjugates for the additional myostatin pathway biomarkers were prepared using standard methods as described in EP 2189539 ([0106]-[0122]). For the biomarkers p-AKT, p-FOXO, MyOD1, MyoG, FBO32, ALK type 1, Pax3, Myf-5, MuRF1, CDKN1 and CDK2, tissue homogenate instead of serum was used. Table 7: Biomarker analysis
The additional myostatin pathway biomarkers shown in Table 7 were quantified using immune-PCR.

Sequence: CKMSPINMLYFNGKEQIIYG [myostatin propeptide fragment]
- Amount of antibodies measured in sample ([1]; anti-myostatin IgG in calf blood serum, intramuscular treatment on day 0, day 35 and day 88): 382 ng/mL
- levels of measured anti-myostatin IgG antibodies and treatment ([1]; blind and open tests, compared to the negative control animals): clear association
- general health of the calves [2]: did not impact the general health of the calves
- (P)-SMAD2/ SMAD 3 ([3]; calf sample): -
- Act IIB ([3]; calf serum): +
- IgG anti-myostatin antibodies ([3]; calf serum): +
- Leptin ([3]; calf serum): +
- Myostatin Propeptide ([3]; calf serum): -
- (p)-FOxO ([3]; calf tissue homogenate): +
- ALK type 1 ([3]; calf tissue homogenate): -
- CDK2 ([3]; calf tissue homogenate): +
- CDKN1 A ([3]; calf tissue homogenate): +
- FBXO32 ([3]; calf tissue homogenate): -
- MuRF1 ([3]; calf tissue homogenate): -
- Myf-5 ([3]; calf tissue homogenate): +
- MyoD1 ([3]; calf tissue homogenate): +
- MyoG ([3]; calf tissue homogenate): +
- Pax 3 ([3]; calf tissue homogenate): +
- p-AKT ([3]; calf tissue homogenate): +
